Structures can show the parent of a compound that is named as a salt.
What was measured:
[1] = test system: recreational stimulant abusers; assay: Intravenous study, treatment-emergent adverse events; conditions: d-methylphenidate treatment vs serdexmethylphenidate
Protocol: (§1) A study was conducted in humans to assess the intravenous abuse potential of serdexmethylphenidate relative to unconjugated d-methylphenidate and placebo in recreational stimulant abusers. This was a Phase 1, randomized, double-blind study in which serdexmethylphenidate and d-methylphenidate were administered intravenously in recreational stimulant users with a history of non-oral abuse. In Part A of the study, subjects (Cohort 1) participated in a dose-escalation phase to determine the optimal dose of intravenous d-methylphenidate based on tolerability and abuse-related pharmacodynamic assessments. […] The doses of serdexmethylphenidate and d-methylphenidate are equivalent with respect to molar amount of d-methylphenidate. FDA-recommended abuse potential measures and blood samples were collected at different times after dosing. Safety assessments were performed throughout the study.

[2] = test system: recreational stimulant abusers; assay: Intravenous abuse potential study, VAS pharmacodynamic assessments; type: in vivo, human
Source text: “Drug liking” score, used herein, is the score used to assess the degree that a human participant likes a drug effect at the time the question is being asked (that is, at the moment). It is scored using a 0 to 100 point bipolar visual analogue scale (VAS) anchored in the center with a neutral anchor of “neither like nor dislike” (score of 50), on the left with “strong disliking” (score of 0) and on the right with “strong liking” (score of 100).
“Euphoria” or “Feeling High” score, used herein, is the term to describe the score used to assess the degree that a human participant is high at the time the question is being asked (that is, at the moment). It is scored using a 0 to 100 point unipolar visual analogue scale (VAS) anchored on the left with “Not at All” (score of 0) and on the right with “Extremely” (score of 100).
“Take Drug Again” score, used herein, is the term to describe the score used to assess the degree that a human participant wants to take the drug again, if given the opportunity, based on his/her opinion now, i.e., at the time the question is being asked. It is scored using a 0 to 100 point unipolar visual analogue scale (VAS) anchored on the left with “Definitely Would Not” (score of 0) and on the right with “Definitely Would” (score of 100).
“Overall Drug Liking” score, used herein, is the term to describe the score used to assess the human subject's global perception of drug liking (i.e., the subjective effects over the whole course of the drug experience including any carryover effects). Subjects respond to the statement “Overall, my liking for this drug is.” The question is scored using a 0-100 point bipolar VAS anchored on the left with “Strong Disliking” (score of 0); “Neither Like nor Dislike” (score of 50) in the middle, and anchored on the right with “Strong Liking” (score of 100). This scale has the advantage of the human subject being relatively less affected or unaffected by acute study drug effects (if any) by the time of the assessment.
“Good Effects” score, used herein, is the term to describe the score used to assess the degree that a human participant is feeling good drug effects at the time the question is being asked (that is, at the moment). Subjects respond to the statement “At this moment, I can feel good drug effects.” It is scored using a 0 to 100 point unipolar visual analogue scale (VAS) anchored on the left with “Not at All” (score of 0) and on the right with “Extremely” (score of 100).
Safety assessments were performed throughout the study.

[3] = test system: healthy, nondependent, recreational stimulant users; assay: Oral abuse potential study, VAS pharmacodynamic assessments
[4] = Intranasal study (KP415.A02), plasma pharmacokinetics; type: in vivo, human; conditions: intranasal administration
Protocol: On dosing days in the Treatment Phase, blood samples were collected for the measurement of the plasma concentrations of SDX, d-methylphenidate (d-MPH), 1-methylphenidate (1-MPH) and ritalinic acid at predose and at 0.25, 0.5, 0.75, 1, 1.5, 2, 3, 4, 5, 6, 7, 8, 9, 10, 12, 16, 24, 36, and 48 hours ±5 minutes after each dose of study drug. […] All VAS pharmacodynamic assessments except Take Drug Again and Overall Drug Liking were performed at 0.25, 0.5, 0.75, 1, 1.5, 2, 3, 4, 5, 6, 7, 8, 10, 12, 24 hours ±5 minutes postdose. In addition, predose assessments of Feeling High, and Drowsiness/Alertness were collected. The Take Drug Again and Overall Drug Liking VAS assessments were performed at 12 and 24 hours ±5 minutes postdose. Ease of Nasal Insufflation scores were completed within 5 minutes after the completion of each intranasal drug administration during the Treatment Phase.

[5] = Intravenous pharmacokinetic study (KP415.A03) in recreational stimulant users; conditions: following intravenous administration
Protocol: as §1

[6] = Focalin XR 80 mg, phentermine HCl 60 mg, bipolar VAS
[7] = Focalin XR 80 mg, phentermine HCl 60 mg, unipolar VAS
[8] = phentermine HCl 60 mg vs SDX Cl 120 mg
[9] = phentermine HCl 60 mg vs SDX Cl 240 mg
[10] = phentermine HCl 60 mg vs placebo

COC(=O)[C@H](c1ccccc1)[C@H]1CCCCN1 [d-methylphenidate, methyl (R)-2-phenyl-2-((R)-piperidin-2-yl)acetate, reference compound]
Typical stimulant-related Adverse Events (euphoric mood, hypervigilance, increased heart rate) [1]: more common | Drug Liking Emax, statistical analysis vs. placebo ([2]; d-MPH HCl 15 mg vs placebo (study validity)): significantly higher

CC(C)(N)Cc1ccccc1 [phentermine hydrochloride, reference compound]
Drug Liking Emax, Median [3, 6]: 84.0 | Feeling Alert/Drowsy Emax, Median [3, 6]: 84.0 | Overall Drug Liking Emax, Median [3, 6]: 77.0 | Take Drug Again Emax, Median [3, 6]: 75.0 | Any Effects Emax, Median [3, 7]: 74.0 | Bad Effects Emax, Median [3, 7]: 7.0 | Feeling High Emax, Median [3, 7]: 76.0 | Good Effects Emax, Median [3, 7]: 75.0 | Mean Difference Any Effects Emax, D vs A [3, 8]: 37.4 | Mean Difference Bad Effects Emax, D vs A [3, 8]: 11.9 | Mean Difference Feeling Alert/Drowsy Emax, D vs A [3, 8]: 15.7 | Mean Difference Feeling High Emax, D vs A [3, 8]: 36.0 | Mean Difference Good Effects Emax, D vs A [3, 8]: 35.5 | Mean Difference Overall Drug Liking Emax, D vs A [3, 8]: 14.9 | Mean Difference Take Drug Again Emax, D vs A [3, 8]: 14.9 | Mean Difference Drug Liking Emax, D vs A ([3]; phentermine HCl 60 mg vs SDX Cl 120 mg, margin 10): 15.5 | Mean Difference Any Effects Emax, D vs B [3, 9]: 28.0 | Mean Difference Bad Effects Emax, D vs B [3, 9]: 4.6 | Mean Difference Feeling Alert/Drowsy Emax, D vs B [3, 9]: 12.2 | Mean Difference Feeling High Emax, D vs B [3, 9]: 27.7 | Mean Difference Good Effects Emax, D vs B [3, 9]: 30.2 | Mean Difference Overall Drug Liking Emax, D vs B [3, 9]: 15.3 | Mean Difference Take Drug Again Emax, D vs B [3, 9]: 15.4 | Mean Difference Drug Liking Emax, D vs B ([3]; phentermine HCl 60 mg vs SDX Cl 240 mg, margin 10): 14.0 | Bad Effects Emax, median difference D vs E [3, 10]: 8.0c | Mean Difference Any Effects Emax, D vs E [3, 10]: 48.5 | Mean Difference Feeling Alert/Drowsy Emax, D vs E [3, 10]: 23.5 | Mean Difference Feeling High Emax, D vs E [3, 10]: 46.4 | Mean Difference Good Effects Emax, D vs E [3, 10]: 47.6 | Mean Difference Overall Drug Liking Emax, D vs E [3, 10]: 18.6 | Mean Difference Take Drug Again Emax, D vs E [3, 10]: 17.1 | Mean Difference Drug Liking Emax, D vs E ([3]; phentermine HCl 60 mg vs placebo, margin 10, hydrochloride): 22.3 | Mean Difference Drug Liking Emax, D vs E ([3]; phentermine HCl 60 mg vs placebo, margin 10, listed as Phentermine, hydrochloride): statistically significantly higher

COC(=O)[C@H](c1ccccc1)[C@H]1CCCCN1C(=O)OC[n+]1cccc(C(=O)N[C@@H](CO)C(=O)O)c1 [serdexmethylphenidate]
conversion of SDX to the active d-methylphenidate when snorted [4]: not readily or effectively converted | conversion of serdexmethylphenidate to d-methylphenidate [5]: very little conversion | Median Difference Drug Liking Emax, A vs C ([2]; SDX Cl 30 mg vs placebo, bipolar VAS): not significantly different | Median Difference Drug Liking Emax, B vs A ([2]; d-MPH HCl 15 mg vs SDX Cl 30 mg, bipolar VAS): significantly lower | effects on multiple abuse-related endpoints vs intravenous placebo ([2]; subjects with a history of non-oral abuse of stimulants): statistically similar

— patent publication US20200237742A1, “Serdexmethylphenidate Conjugates, Compositions And Methods Of Use Thereof” (priority 2018, published 2020)
